Entries after “also recorded” stand apart in the source; their conditions may differ. Read-outs that look alike come from different tables or passages of the source.
Assays:
[1] = test system: antiviral state induced by human α interferon; assay: cells; assay type: cell-based; settings: for inhibited the action of interferon: summary of Table 3, concentrations and serum as in Table 3
[2] = test system: antiviral state induced by human β interferon; assay: cells; assay type: cell-based; settings: Fibroblast, 6 h, read-out: % inhibition of antiviral state induced by: human β interferon
interferon receptors = biological target: T1, interferon receptors (Homo sapiens, UniProt P17181+P48551); assay: Binding of 125I-labelled human alpha interferon to human fibroblasts (Scatchard plot), Example 3; settings: for down regulating the interferon receptors: Figures 4 and 5
T1 construct: endogenous in cells; host or cells: human fibroblasts
T1 sequence (P17181 28-557): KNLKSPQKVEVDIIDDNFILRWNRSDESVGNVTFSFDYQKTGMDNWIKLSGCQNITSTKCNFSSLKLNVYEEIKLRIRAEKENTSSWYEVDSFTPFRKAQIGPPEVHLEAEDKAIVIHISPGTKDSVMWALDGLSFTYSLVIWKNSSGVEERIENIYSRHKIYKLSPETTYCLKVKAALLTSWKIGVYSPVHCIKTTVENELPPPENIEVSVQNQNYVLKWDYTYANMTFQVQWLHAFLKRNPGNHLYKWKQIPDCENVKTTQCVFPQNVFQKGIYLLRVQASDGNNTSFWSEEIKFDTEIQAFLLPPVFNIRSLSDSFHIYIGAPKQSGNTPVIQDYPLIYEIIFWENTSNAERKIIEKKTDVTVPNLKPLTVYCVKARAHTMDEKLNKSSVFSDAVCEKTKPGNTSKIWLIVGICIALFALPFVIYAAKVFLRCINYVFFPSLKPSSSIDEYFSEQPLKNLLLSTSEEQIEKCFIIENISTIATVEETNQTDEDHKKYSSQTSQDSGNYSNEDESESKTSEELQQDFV
T1 sequence (P48551 27-515): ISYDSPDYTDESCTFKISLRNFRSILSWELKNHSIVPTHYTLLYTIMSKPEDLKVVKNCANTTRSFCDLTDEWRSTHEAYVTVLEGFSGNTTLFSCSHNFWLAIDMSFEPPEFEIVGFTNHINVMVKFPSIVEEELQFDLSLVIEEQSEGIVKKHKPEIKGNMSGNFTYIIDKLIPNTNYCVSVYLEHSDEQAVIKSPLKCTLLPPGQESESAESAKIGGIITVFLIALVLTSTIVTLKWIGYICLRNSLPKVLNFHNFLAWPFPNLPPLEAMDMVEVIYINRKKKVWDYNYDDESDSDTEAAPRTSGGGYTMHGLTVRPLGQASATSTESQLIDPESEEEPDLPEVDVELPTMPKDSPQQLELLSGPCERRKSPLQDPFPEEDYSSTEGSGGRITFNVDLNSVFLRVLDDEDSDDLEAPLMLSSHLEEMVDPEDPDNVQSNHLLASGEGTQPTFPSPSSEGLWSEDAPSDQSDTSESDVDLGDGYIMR
Method: The binding of interferons to human cells was analysed with human alpha interferon labelled with radioactive iodine. The ¹²⁵I-labelled human alpha interferon was assayed for biological activity as well as analysed by sodium dodecyl sulphate (SDS)-polyacrylamide gel electrophoresis before use to ensure that the labelled ligand was not degraded and biologically active. The labelled ligand was then used in binding studies with human fibroblasts as previously described (Thompson et al., Branca and Baglioni; and Epstein et al.). The results of this study are expressed as a Scatchard plot of the binding data in Figures 3 to 6. The cells were washed twice with growth medium to remove most of the fatty acid before they were used to measure the binding of ¹²⁵I-human alpha interferon to their receptors. B and F are concentration of bound and free ¹²⁵I-human alpha interferon respectively.

[3] = test system: induction of antiviral state by human α interferon in human fibroblasts; assay type: cell-based
[4] = test system: induction of antiviral state by mouse interferon in mouse L cells; assay type: cell-based; settings: 50 µM
[5] = test system: induction of antiviral state by mouse interferon in mouse A9 cells; assay type: cell-based; settings: 50 µM
interferon activity = settings: Sarkar and Gupta; cited from earlier work
[6] = test system: total protein and RNA synthesis in the cells; settings: at concentrations exceeding 1000µM; Sarkar and Gupta; cited from earlier work
[7] = test system: antiviral state induced by human γ interferon; assay: cells; assay type: cell-based; settings: Fibroblast, 6 h, read-out: % inhibition of antiviral state induced by: human γ interferon
[8] = test system: total cellular protein synthesis; assay: Total cellular protein synthesis; assay type: cell-based
[9] = test system: uptake of ³[H]-uridine by the cells; assay: Uptake of 3[H]-uridine by the cells; assay type: cell-based
[10] = test system: human alpha interferon-induced antiviral state; assay: Kinetics of the inhibition of the interferon-induced antiviral state in human fibroblasts, Example 2; assay type: cell-based
Method: Human fibroblasts grown in 96 well Micro-test II plates were incubated with growth medium containing 1% fetal calf serum and 50µM arachidonic acid for up to 6 hours. The cells were then assayed for the inhibition of the human alpha interferon-induced antiviral state.
Also, human fibroblasts in 96 well Micro-test II plates were incubated with growth medium containing 1% fetal calf serum and 50µM arachidonic acid for 6 hours.

[11] = Homo sapiens, Fibroblast, 6 h, read-out: % inhibition of antiviral state induced by: human α interferon, 50µM compound, 10% fetal calf serum, 6 hours
[12] = Homo sapiens, Fibroblast, 6 h, read-out: % inhibition of antiviral state induced by: human α interferon, 50µM compound, 1% fetal calf serum, 6 hours
[13] = Homo sapiens, Fibroblast, read-out: % inhibition of the antiviral state induced by human α interferon, Table 4: 50 µM compound, 1% fetal calf serum
[14] = Homo sapiens, Fibroblast, read-out: % inhibition of the antiviral state induced by human α interferon, Table 4: 50 µM compound, 10% fetal calf serum

CC(Cc1ccc(O)c(O)c1)C(C)Cc1ccc(O)c(O)c1 (stereo not drawn) [Nordihydroguaiaretic acid, 4,4′-(2,3-dimethyltetramethylene)bis(benzene-1,2-diol)]
inhibition at 50 µM [1, 11]: ≥ 90%
inhibited the action of interferon [1]: ≥ 90%
inhibition at 50 µM [2]: ≥ 90%
down regulation of the interferon receptors (interferon receptors; 10% fetal calf serum (Figure 6)): does not seem to significantly down regulate

CCCCCCCCC#CCC#CCC#CCCCC(=O)O [5,8,11,-eicosatriynoic acid, 5,8,11-eicosatriynoic acid]
inhibition at 50 µM [1, 12]: ≥ 90%
inhibited the action of interferon [1]: ≥ 90%

O=c1c(O)c(-c2ccc(O)c(O)c2)oc2cc(O)cc(O)c12 [Quercetin]
inhibition at 50 µM [1, 11]: 90%
inhibited the action of interferon [1]: ≥ 90%

COc1ccc2c(c1)c(CC(=O)O)c(C)n2C(=O)c1ccc(Cl)cc1 [Indomethacin]
% inhibition in human fibroblasts ([3]; 50 µM): not measurable
% inhibition in human fibroblasts ([3]; 300 µM): could not measure any inhibitory effect; also recorded: not measurable
% inhibition in mouse L cells [4]: not measurable
% inhibition in mouse A9 cells [5]: not measurable
concentration at which interferon activity could be suppressed (interferon activity): exceeding 1000 µM

CC(C)Cc1ccc(C(C)C(=O)O)cc1 (stereo not drawn) [ibuprofen]
concentration at which interferon activity could be suppressed (interferon activity): exceeding 1000 µM
effect on total protein and RNA synthesis in the cells [6]: began to inhibit total protein and RNA synthesis

CCCCC1C(=O)N(c2ccccc2)N(c2ccc(O)cc2)C1=O (stereo not drawn) [Oxyphenylbutazone]
% inhibition in human fibroblasts ([3]; 50 µM): could not measure any inhibitory effect; also recorded: not measurable
% inhibition in mouse L cells [4]: could not measure any inhibitory effect; also recorded: not measurable

CCCCCC=CCC=CCC=CCC=CCCCC(=O)O [arachidonic acid, 5,8,11,14-eicosatetraenoic acid]
inhibition at 50 µM [1, 12]: ≥ 90%
inhibition at 50 µM [1, 13]: ≥ 90%
inhibition at 50 µM [1, 14]: 0%
inhibition at 300 µM ([1]; Homo sapiens, Fibroblast, read-out: % inhibition of the antiviral state induced by human α interferon, Table 4: 300 µM compound, 10% fetal calf serum): ≥ 90%
inhibited the action of interferon [1]: ≥ 90%
inhibition at 50 µM [2]: ≥ 90%
inhibition at 50 µM [7]: ≥ 80%
down regulating the interferon receptors (interferon receptors): 30-60%
inhibition of total cellular protein synthesis [8]: did not inhibit
inhibition of the uptake of ³[H]-uridine by the cells [9]: partially inhibited
reversibility of the inhibition after removal of compound ([10]; 50µM for 6 hours, washed, reincubated 0.5, 1, 2 or 24 hours, 1% fetal calf serum (Figure 2)): reversible with time
onset of inhibition of the interferon-induced antiviral state ([10]; 50µM, 1% fetal calf serum, incubation up to 6 hours (Figure 1)): within minutes

CCCCCC#CCC#CCC#CCC#CCCCC(=O)O
inhibition at 50 µM [1, 12]: ≥ 90%
inhibition at 50 µM [1, 13]: ≥ 90%
inhibition at 50 µM [1, 14]: 0%
inhibition at 200 µM ([1]; Homo sapiens, Fibroblast, read-out: % inhibition of the antiviral state induced by human α interferon, Table 4: 200 µM compound, 10% fetal calf serum): ≥ 90%
inhibition at 200 µM ([1]; Homo sapiens, Fibroblast, read-out: inhibit the interferon-induced antiviral state, 200µM, 10% fetal calf serum): ≥ 90%
inhibited the action of interferon [1]: ≥ 90%
inhibition at 50 µM [2]: ≥ 90%
inhibition at 50 µM [7]: ≥ 80%
down regulating the interferon receptors (interferon receptors): 30-60%
inhibition of total cellular protein synthesis [8]: did not inhibit
inhibition of the uptake of ³[H]-uridine by the cells [9]: partially inhibited

CC(=O)N1CCN(c2ccc(OC[C@H]3CO[C@](Cn4ccnc4)(c4ccc(Cl)cc4Cl)O3)cc2)CC1 (relative stereo) [Ketoconazole, cis-1-acetyl-4-{4-[2-(2,4-dichlorophenyl)-2-imidazol-1-ylmethyl-1,3-dioxolan-4-ylmethoxy]phenyl}-piperazine, reference compound]
inhibition at 100 µM ([1]; Homo sapiens, Fibroblast, 6 h, read-out: % inhibition of antiviral state induced by: human α interferon, 100µM compound, 10% fetal calf serum, 6 hours): ≥ 90%
inhibited the action of interferon [1]: ≥ 90%
inhibition at 100 µM [2]: ≥ 90%
inhibition of total cellular protein synthesis [8]: did not inhibit

CCCCC/C=C\C/C=C\C/C=C\C/C=C\CCCC(=O)O [sodium arachidonate]
inhibition at 300 µM ([1]; Homo sapiens, Fibroblast, read-out: inhibit the interferon-induced antiviral state, 300µM, 10% fetal calf serum): ≥ 90%
